{"source": "patent US20180284095A1", "about": "“BIOMARKERS ASSOCIATED WITH LSD1 INHIBITORS AND USES THEREOF” (Oryzon Genomics, S.A., priority 2015, published 2018)", "format_in_all_cases": "in vivo, mouse", "key": {"S100A8": {"system": "S100A8", "test": "Microarray gene expression, hippocampus of SAMP8 mice (Example 3)", "conditions": "for Hybridization signal sample_Cy5 S100A8 / log2 (sample/control) S100A8: SAMP8 female pool", "experimental": "(§1) Total RNA was extracted from samples using the RNeasy extraction kit (Qiagen). The quality and concentration of the RNA was analyzed using the Agilent 2100 bioanalyzer and NanoDrop™ ND-1000 (Thermo Scientific). Samples with RNA integrity number (RIN)<6.0 were discarded. Total RNA (0.5 μg) amplification and labelling with Cy3 or Cy5 was carried out using the Eberwein mRNA amplification procedure (Van Gelder et al, Proc Natl Acad Sci USA 1990, 87:1663-1667) employing the MessageAmp™ aRNA amplification kit from Ambion (Applied Biosystems) following the manufacturer's instructions with minor modifications. As hybridization controls, plant mRNAs were transcribed from a plasmid containing the Zea mays Xet (xyloglucan endo-transglycosylase) cDNA and from a plasmid containing the Zea mays Zmmyb42 cDNA, independently prepared Cy3 and Cy5 labelled aRNA from these two RNAs using the Eberwein mRNA amplification procedure (as disclosed in Cerdà et al, Gen Comp Endocrinol 2008, 156:470-481).\n(§2) The Cy3- and Cy5-labelled cRNAs and spikes were combined and hybridized to the microarray described in Example 2.6 for 17 h at 60° C. using Agilent's gaskets G2534-60002, G2534A hybridization chambers and DNA Hybridization Oven G2545A, according to the manufacturer's instructions. More specifically, equal amounts of Cy3 and Cy5 labeled Xet aRNA as well as equal amounts of Cy3 and Cy5 labeled Zmmyb42 aRNA were spiked into each mixture hybridized to the array. Arrays were washed and raw data were obtained using Agilent's DNA Microarray Scanner G2505B and Feature Extraction software (v10.1). The raw fluorescence intensity data were processed using applicant's proprietary software, and consists in the following operations:\n(§3) Data normalization was carried out by an improved version of the nonlinear Q-splines normalization method (Workman et al., Genome Biol 2002, 3(9):research0048.1-0048.16). Normalization results were presented graphically as MA plots, as first described by Dudoit et al (Dudoit et al, Statistica Sinica, 2002, 12:111-139). Each point corresponds to a probe of the DNA array. M values (vertical axis) are the log-differential expression ratios. A values (horizontal axis) are the log-intensities of the spots. M and A are calculated from the Cy5 and Cy3 intensity values as of each spot. The DNA Array data is normalized using an improved version of non-linear Q-Splines normalization described by Workman et al., Genome Biol 2002, 3(9):research0048.1-0048.16. This process is useful to correct the deviation of the M values from the statistical assumption that most of the spots have M=0 in MA plots. The method allows the adjustment of all M values to form a cloud centered at M=0 in all intensity ranges. The data used to calculate the normalization fitting curve is the totality of the raw measurement dataset, excluding the signals for the probes for the spiked-in plant RNA controls and negative controls. In order to be able to normalize properly the data among all the experiments, the probe-set must include an important group of genes that should have no change (M=0) in the experiment. The normalization function is then applied to all the data, including controls.\n(§4) Normalized and log-transformed data were used to calculate log 2 (sample/control) and Fold Change (FC) values. No background subtraction was applied to the signal intensity values during data processing, permitting robust selection of differentially expressed genes with low expression levels at the cost of potential sub-estimation of change when intensity levels are close to the array background level.\n(§5) The technical replicate analysis is the statistical processing of the microarray data. Replicates were calculated to measure oligo replicates on an array or between replicates of experiments on different arrays (i.e. hybridization of the same sample). […]"}, "S100A9": {"system": "S100A9", "test": "Microarray gene expression, hippocampus of SAMP8 mice (Example 3)", "conditions": "for Hybridization signal sample_Cy5 S100A9 / log2 (sample/control) S100A9: SAMP8 female pool", "experimental": "as §1, §2, §3, §4, §5"}, "SAMP8 mice": {"system": "SAMP8 mice", "test": "Platelet levels (hemogram) in SAMP8 mice", "experimental": "It is known that LSD1 is implicated in normal hematopoiesis (SprDssel et al, Leukemia 2012, 26(9)2039-51). […] The mice were sacrificed and blood was collected in sodium citrate-containing tubes for hemogram analysis. Platelets levels were determined in a standard hematology analyzer (Abacus Junior Vet, from Diatron) following the manufacturer's instructions."}, "[1]": {"conditions": "SAMP8 females, treatment vs vehicle"}}, "data": [{"substance": "(−) 5-((((trans)-2-(4-(benzyloxy)phenyl)cyclopropyl)amino)methyl)-1,3,4-oxadiazol-2-amine [Compound 1]", "values": [{"measurement": "Hybridization signal sample_Cy5 S100A8", "setting": "S100A8; HD 3.2 mg/kg/day", "value": 77.0786}, {"measurement": "log2 (sample/control) S100A8", "setting": "S100A8; HD 3.2 mg/kg/day vs SAMP8 VEH", "value": "−0.1813"}, {"measurement": "Hybridization signal sample_Cy5 S100A8", "setting": "S100A8; LD 0.96 mg/kg/day", "value": 70.7119}, {"measurement": "log2 (sample/control) S100A8", "setting": "S100A8; LD 0.96 mg/kg/day vs SAMP8 VEH", "value": "−0.2255"}, {"measurement": "S100A8 expression (microarray)", "setting": "S100A8; [1]", "value": "down-regulated"}, {"measurement": "Hybridization signal sample_Cy5 S100A9", "setting": "S100A9; HD 3.2 mg/kg/day", "value": 73.2282}, {"measurement": "log2 (sample/control) S100A9", "setting": "S100A9; HD 3.2 mg/kg/day vs SAMP8 VEH", "value": "−0.7647"}, {"measurement": "Hybridization signal sample_Cy5 S100A9", "setting": "S100A9; LD 0.96 mg/kg/day", "value": 66.4843}, {"measurement": "log2 (sample/control) S100A9", "setting": "S100A9; LD 0.96 mg/kg/day vs SAMP8 VEH", "value": "−0.8381"}, {"measurement": "S100A9 expression (microarray)", "setting": "S100A9; [1]", "value": "down-regulated"}, {"measurement": "platelet levels", "setting": "SAMP8 mice; SAMP8, HD (3.2 mg/kg/day)", "value": "significant reduction of platelet levels"}, {"measurement": "platelet levels", "setting": "SAMP8 mice; SAMP8, LD (0.96 mg/kg/day)", "value": "no significant reduction of platelet levels"}, {"measurement": "platelet levels", "setting": "SAMP8 mice; SAMP8 males, 0.96 mg/kg/day, 16 weeks (4 months), vs vehicle-treated SAMP8, 0.96 mg/kg/day", "value": "no statistically significant effects"}, {"measurement": "platelet levels", "setting": "SAMP8 mice; SAMP8 males, 0.96 mg/kg/day, 16 weeks (4 months), vs vehicle-treated SAMP8, listed as compound 1, 0.96 mg/kg/day", "value": "no changes in the platelet blood count"}]}]}
